Data from patent US20210139947A1, “METHOD FOR ASSESSING SUSCEPTIBILITY OF A VIRUS TO TREATMENT BY MEASURING ENZYME ACTIVITY AND A SYSTEM THEREFORE” (priority 2017, published 2021).
Like-named read-outs stand apart in the source and are kept apart here.

What was measured:
[1] = test system: RT extracted from HIV-1 C Plasma Sa72 wild type; test: Drug resistance indicator assay, remaining RT activity; assay type: biochemical
Method: (§1) Isolation of HIV is performed in a separation plate, a 96 deep-well microplate (well volume 2 ml). The Viral Load assay is started by addition of 40 μl sample additive e.g 5,5′-dithiobis-(2-nitrobenzoic acid) to each well (see FIG. 2). Thereafter the patient plasmas and control samples are added. Sample additive is mixed with the plasma prior to isolation of HIV for inactivation of certain enzymes present in the plasma. After 20 minutes incubation, a slurry containing 1 μm magnetic polymeric beads, is added to the wells. The positively charged beads are used to capture the HIV particles. At low pH (e.g. 5.5) and appropriate salt concentration the negatively charged HIV particles bind to the beads while most of the other components present in plasma will not bind, e.g. the proteins (antibodies) and anti-retroviral drugs (ARVs). After an additional five minutes incubation, the microwell plate is transported to a magnetic plate. When exposed to the magnetic field from the magnetic plate, the beads will be trapped to the walls of the wells. The plasma can then be removed by aspiration using a pipette. The separation plate is then transported back to the shaker, away from the magnetic plate.
(§2) The wash procedure (see FIG. 3) starts by adding a first wash buffer, the Bead Wash Buffer, and the entire separation plate will be shaken during three minutes to resuspend the beads. After that, the separation plate is moved to the magnetic plate where the beads will be exposed to the magnetic field and trapped to the walls of the wells. Next, the wash buffer is aspirated. The separation plate is then transported back to the shaker, away from the magnetic plate. In the current example, this wash procedure is repeated three times with the Bead Wash Buffer (referred to as “Wash solution 1” in FIG. 3) and one time with the second wash buffer, the so called Bead Reconditioning Buffer (referred to as “Wash solution 2” in FIG. 3).
(§3) The reverse transcriptase (RT) is now to be extracted from the viral particles, which is illustrated in FIG. 4. The HIV particle is composed of a protein core surrounded by a lipid bilayer envelope that will break if it is exposed to certain detergents. Once the lipid bilayer envelope is dissolved, the protein core falls apart and the RT inside is released. When the last wash step is finalized, lysis buffer containing e. g. the detergent Synperonic A11 is added to the wells, in FIG. 4 referred to as “lysis buffer”. The virus envelope breaks and the reverse transcriptase, RT, is released. With the magnetic beads still bound to the walls of the wells, the lysate containing the released RT is collected by aspiration and used in the subsequent RT reaction step.

[2] = test system: RT extracted from HIV-1 C Plasma Sa147 K103N, E138Q, Y318F, M184V; test: as above; assay type: biochemical
Method: as §1, §2, §3

[3] = target: T1, SIV Recombinant RT SIVsmH4 (Simian immunodeficiency virus, UniProt P12502); test: as above; assay type: biochemical; details: for remaining activity at 9 µM: EFV 9.0 μM
T1 construct: The recombinantly expressed and purified SIV RT was derived from the molecular clone pSIVsm/H4; made in house; host or cells: E. coli BL21 (DE3), vector pSRT.ET 11c
Method: The recombinantly expressed and purified SIV RT was derived from the molecular clone pSIVsm/H4. An expression vector pSRT.ET 11c was constructed and expression of SIV-RT in E. coli strain BL21 (DE3) in ordinary LB medium was carried out. The enzyme was purified in three chromatographic steps on a Heparin Sepharose CL-6B column, a Sepharose FF column and a Phenyl Sepharose CL-4B column.
(§4) The RT extracts recovered from this process and the other RT samples were analyzed for remaining activity according to above described drug resistance indicator assay.

[4] = test system: FIV RT, Cell culture virus M2 CladB; test: as above; assay type: biochemical
Method: as §4

[5] = target: HIV-1 B Recombinant RT HXB2 wild type (Human immunodeficiency virus type 1 group M subtype B, UniProt P04585); test: biochemical; details: read-out: Remaining activity (% of actvity in absence of drug)
Method: as §4

[6] = target: T2, HIV-1 B Recombinant RT BH10 wild type (Human immunodeficiency virus type 1 group M subtype B, UniProt P03366); test: biochemical; details: read-out: Remaining activity (% of actvity in absence of drug)
T2 construct: His-tag (C); made in house; host or cells: E. coli BL21 (DE3); plasmid purchased from Genescript
Method: as §4

[7] = test system: 69SG + 5M Recombinant RT HXB2 M41L,T69S-SG, L210W, R211K, L214F, T215Y; test: Drug resistance indicator assay, remaining RT activity; details: EFV 9.0 μM
Method: (§5) Drug reaction solution: A buffer identical to above mentioned RT Reaction solution with a defined concentration of an antiviral drug added.
(§6) Each lysate is split into two aliquots, one whereof is added to a well containing drug at a predetermined concentration, and one whereof is added to a well without added drug. Apart from the lysates, said HIV drug susceptibility reference samples are also included in the assay.
(§7) The virus susceptibility to treatment with the drug can be determined from the relation between the enzyme activities in the presence and in absence of the drug. This can be expressed as percent remaining RT activity, i.e. the quota between signal in presence of drug and signal in absence of drug times 100.

[8] = target: HTLV-2 RT, Cell culture virus (Human T-cell leukemia virus 2, UniProt P03363); test: as above
Method: as §5
(§8) Each lysate is split into two aliquots, one whereof is added to a well containing drug at a predetermined concentration, and one whereof is added to a well without added drug.
as §7

[9] = target: T3, MMTV Recombinant RT BR6 strain (Mouse mammary tumor virus, UniProt P03365); test: as above
T3 sequence (P03365 861-1436 limits assumed): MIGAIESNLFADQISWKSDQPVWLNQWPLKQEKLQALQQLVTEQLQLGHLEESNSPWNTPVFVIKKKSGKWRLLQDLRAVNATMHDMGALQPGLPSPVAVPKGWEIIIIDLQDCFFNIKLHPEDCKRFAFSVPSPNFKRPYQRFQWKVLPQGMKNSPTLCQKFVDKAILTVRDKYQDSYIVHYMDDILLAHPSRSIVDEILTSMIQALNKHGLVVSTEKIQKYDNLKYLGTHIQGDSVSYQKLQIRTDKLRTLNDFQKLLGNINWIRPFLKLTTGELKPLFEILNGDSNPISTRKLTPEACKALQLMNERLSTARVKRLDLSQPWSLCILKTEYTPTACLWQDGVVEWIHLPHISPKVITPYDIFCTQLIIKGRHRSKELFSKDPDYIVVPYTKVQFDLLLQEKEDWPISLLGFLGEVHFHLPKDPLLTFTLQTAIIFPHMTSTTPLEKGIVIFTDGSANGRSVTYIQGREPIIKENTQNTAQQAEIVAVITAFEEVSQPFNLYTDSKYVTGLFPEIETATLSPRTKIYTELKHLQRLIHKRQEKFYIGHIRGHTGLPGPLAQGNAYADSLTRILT
Method: as §5, §6, §7

[10] = test system: Mammalian γ -polymerase, mithochondria, Beef Heart; test: Drug resistance indicator assay, remaining polymerase activity; details: EFV 9.0 μM
Method: as §5, §6, §7

[11] = test system: HIV-2 RT, Cell culture virus CRF01_AB; test: Drug resistance indicator assay, remaining RT activity; details: EFV 9.0 μM; HIV-2 CRF01_AB
Method: as §5, §6, §7

[12] = test system: JSRV RT, Cell culture virus UK strain; test: as above; details: EFV 9.0 μM
Method: as §5, §6, §7

[13] = test system: PERV RT, Cell culture virus PERV-PK15; test: as above; details: EFV 9.0 μM, 6 mM Mn2+
Method: Virus culture supernatant was cleared from cell debris by centrifugation, aliquoted and stored at −70° C. until use
as §5
All buffers used for analysis of γ-retroviruses RTs were supplemented with 6 mM Mn2+, but were otherwise identical to the buffers described above.
as §6, §7

[14] = test system: BLV RT, Cell culture virus FLK-BLV cells; test: as above; details: EFV 9.0 μM
Method: (This cell line is chronically infected by BLV).
as §5, §6, §7

[15] = test system: 69SS + 5M Recombinant RT HXB2 M41L,T69S-SS, L210W, R211K, L214F, T215Y; test: as above; details: EFV 9.0 μM
Method: as §5, §6, §7

[16] = test system: HTLV-1 RT, Cell culture virus MT-2 Cells; test: as above; details: EFV 9.0 μM
Method: as §5, §8, §7

T1 sequence (P12502 598-1156 limits assumed): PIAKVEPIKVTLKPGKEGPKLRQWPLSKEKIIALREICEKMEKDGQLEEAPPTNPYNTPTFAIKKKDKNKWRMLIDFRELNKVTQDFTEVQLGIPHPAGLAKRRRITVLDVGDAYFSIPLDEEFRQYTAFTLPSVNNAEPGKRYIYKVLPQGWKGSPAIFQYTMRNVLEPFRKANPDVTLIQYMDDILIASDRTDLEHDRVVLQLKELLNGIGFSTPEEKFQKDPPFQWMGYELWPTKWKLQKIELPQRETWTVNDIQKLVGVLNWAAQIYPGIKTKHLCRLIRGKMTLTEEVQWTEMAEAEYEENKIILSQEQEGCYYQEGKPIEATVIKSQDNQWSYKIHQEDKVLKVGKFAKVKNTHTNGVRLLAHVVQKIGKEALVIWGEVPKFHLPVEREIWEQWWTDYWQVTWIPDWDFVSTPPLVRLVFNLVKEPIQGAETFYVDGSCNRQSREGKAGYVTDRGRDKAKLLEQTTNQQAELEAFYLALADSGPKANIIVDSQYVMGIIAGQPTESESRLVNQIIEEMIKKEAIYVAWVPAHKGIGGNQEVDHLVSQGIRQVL
Chain of HTLV-2 RT, Cell culture virus (P03363 580-1166): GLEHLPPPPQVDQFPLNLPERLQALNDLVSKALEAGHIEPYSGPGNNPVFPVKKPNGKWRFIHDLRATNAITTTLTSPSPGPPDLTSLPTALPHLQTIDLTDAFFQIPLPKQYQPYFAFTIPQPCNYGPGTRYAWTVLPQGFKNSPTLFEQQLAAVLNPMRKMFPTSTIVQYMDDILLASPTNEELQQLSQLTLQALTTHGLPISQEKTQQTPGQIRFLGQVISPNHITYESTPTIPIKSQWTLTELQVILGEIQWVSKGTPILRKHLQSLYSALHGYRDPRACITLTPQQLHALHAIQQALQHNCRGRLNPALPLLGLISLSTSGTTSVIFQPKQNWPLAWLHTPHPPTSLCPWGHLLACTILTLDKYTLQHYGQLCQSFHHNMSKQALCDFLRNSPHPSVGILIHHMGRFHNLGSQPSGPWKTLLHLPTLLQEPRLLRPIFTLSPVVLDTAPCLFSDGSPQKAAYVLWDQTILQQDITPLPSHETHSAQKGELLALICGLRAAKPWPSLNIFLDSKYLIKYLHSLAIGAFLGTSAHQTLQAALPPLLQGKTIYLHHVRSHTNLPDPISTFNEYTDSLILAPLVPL

Structure (SMILES): Cc1cc(C#N)cc(C)c1Oc1nc(Nc2ccc(C#N)cc2)nc(N)c1Br [ETV, 4-({6-amino-5-bromo-2-[(4-cyanophenyl)amino]pyrimidin-4-yl}oxy)-3,5-dimethylbenzonitrile]
- Remaining activity (% of actvity in absence of drug) ([1]; ETV 21.8 μM): 6.5%
- Remaining activity (% of actvity in absence of drug) ([2]; ETV 21.8 μM): 68.0%
- remaining activity at 21.8 µM ([3]; ETV 21.8 μM, SIVsmH4, read-out: Remaining activity (% of actvity in absence of drug)): 98.5%
- Remaining activity (% of actvity in absence of drug) ([4]; ETV 21.8 μM): 90.6%
- remaining activity at 21.8 µM [5]: 2.8%
- remaining activity at 21.8 µM [6]: 3.5%

Structure (SMILES): Cc1cc(/C=C/C#N)cc(C)c1Nc1ccnc(Nc2ccc(C#N)cc2)n1 [RPV, 4-{[4-({4-[(1E)-2-cyanoeth-1-en-1-yl]-2,6-dimethylphenyl}amino)pyrimidin-2-yl]amino}benzonitrile]
- Remaining activity (% of actvity in absence of drug) ([1]; RPV 12.0 μM): 9.3%
- Remaining activity (% of actvity in absence of drug) ([2]; RPV 12.0 μM): 80.8%
- remaining activity at 12 µM ([3]; RPV 12.0 μM, SIVsmH4, read-out: Remaining activity (% of actvity in absence of drug)): 108%
- Remaining activity (% of actvity in absence of drug) ([4]; RPV 12.0 μM): 86.1%
- remaining activity at 12 µM ([5]; RPV 12.0 μM, HXB2 wild type): 2.4%
- remaining activity at 12 µM ([6]; RPV 12.0 μM, BH10 wild type): 2.5%

Structure (SMILES): O=C1Nc2ccc(Cl)cc2[C@@](C#CC2CC2)(C(F)(F)F)O1 [EFV, (−)6-chloro-4-cyclopropylethynyl-4-trifluoromethyl-I,4-dihydro-2H-3,1-benzoxazin-2-one]
- Remaining activity (%) [7]: 3.9%
- remaining activity at 9 µM [8]: 91.7%
- Remaining activity (% of actvity in absence of drug) ([1]; EFV 9.0 μM): 8.3%
- Remaining activity (% of actvity in absence of drug) ([2]; EFV 9.0 μM): 87.8%
- remaining activity at 9 µM [9]: 102%
- Remaining activity (%) [10]: 94.8%
- remaining activity at 9 µM ([3]; SIVsmH4, read-out: Remaining activity (% of actvity in absence of drug)): 99.9%
- remaining activity at 9 µM ([3]; SIVsmH4, read-out: Remaining activity (%)): 103%
- Remaining activity (%) [11]: 100.2%
- Remaining activity (% of actvity in absence of drug) ([4]; EFV 9.0 μM): 93.6%
- Remaining activity (%) ([4]; EFV 9.0 μM): 93.6%
- Remaining activity (%) [12]: 102.7%
- Remaining activity (%) [13]: 98.0%
- Remaining activity (%) [14]: 101.7%
- Remaining activity (%) [15]: 3.5%
- Remaining activity (%) [16]: 93.8%

Structure (SMILES): Cc1ccnc2c1NC(=O)c1cccnc1N2C1CC1 [NPV, 11-cyclopropyl-5,11-dihydro-4-methyl-6H-dipyrido[3,2-b:2′,3′-f][1,4]diazepin-6-one]
- Remaining activity (% of actvity in absence of drug) ([1]; NPV 81.0 μM): 16.1%
- Remaining activity (% of actvity in absence of drug) ([2]; NPV 81.0 μM): 94.9%
- remaining activity at 81 µM ([3]; read-out: Remaining activity (% of actvity in absence of drug)): 99.5%
- Remaining activity (% of actvity in absence of drug) ([4]; NPV 81.0 μM): 87.7%
- remaining activity at 81 µM [5]: 8.1%
- remaining activity at 81 µM [6]: 3.4%
